Source: patent publication US20250082633A1, “COMPOUNDS AND METHODS FOR MODULATING SPLICING” (REMIX THERAPEUTICS INC., priority 2021, published 2025)
Where two headings read alike, the source gives them in different places.

Legend:
MYB mRNA = experiment: RT-qPCR splicing assay, MYB canonical (CJ) and alternative (AJ) junction mRNA; type: cell-based; conditions: Homo sapiens; for IC50: read-out: MYB CJ IC50; for AC50: read-out: MYB AJ AC50
Outline: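 Splice-junction mRNAs (CJ, AJ) measured by TaqMan one-step RT-qPCR on cell lysates, using PPIA as reference for adherent A673 and GAPDH or GUSB for K562. Cells exposed for 24 h to 11 threefold concentrations up to 10 uM final, with DMSO at or below 0.25%.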

SMN2 mRNA = experiment: RT-qPCR splicing assay, gene panel, SMN2 canonical junction (CJ) mRNA; type: cell-based; conditions: Homo sapiens, read-out: SMN2 CJ IC50
Outline: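 A673 (DMEM/10% FBS) or K562 (IMDM/10% FBS) cells were treated 24 h at 37 °C with an 11-point 3-fold dilution series, top final 10 uM, DMSO ≤0.25%. Lysates underwent one-step RT-qPCR for the canonical-junction isoform with GAPDH, GUSB or PPIA as housekeeper. ΔΔCt versus DMSO was converted to RQ (2^−ΔΔCt), then to percent response.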

[1] = decrease in CJ mRNA levels, larger panel of genes, Table 3
[2] = decrease in canonical junction mRNA, A673 or K562 cells, 24 hours treatment, Table 2
[3] = increase in alternative junction mRNA, A673 or K562 cells, 24 hours treatment, Table 2

Row | Compound | IC50 (MYB mRNA; [1]) | IC50 (MYB mRNA; [2]) | IC50 (SMN2 mRNA; [1]) | AC50 (MYB mRNA; [3]) | AC50 (MYB mRNA; 24 h) | IC50 (MYB mRNA; 24 h) | IC50 (MYB mRNA) | IC50 (SMN2 mRNA)
1 | Cc1cn2cc(-c3cc(F)c4nn(C5CCNCC5)cc4c3)nc(C)c2n1 [Compound 132, 6-[7-fluoro-2-(4-piperidyl)indazol-5-yl]-2,8-dimethyl-imidazo[1,2-a]pyrazine] | 1000 to 10000 nM | 1000 to 10000 nM | 100 to 1000 nM | 1000 to 10000 nM | – | – | – | –
2 | Cc1nc2ccc(-c3cc(F)c4nn(C5CCNCC5)cc4c3)cc2s1 [Compound 134, 6-(7-fluoro-2-(piperidin-4-yl)-2H-indazol-5-yl)-2-methylbenzo[d]thiazole] | 1000 to 10000 nM | 1000 to 10000 nM | 100 to 1000 nM | > 10000 nM | – | – | – | –
3 | COc1cc(-c2cc3cn(C)nc3cc2O)nc2cn(C3CCNCC3)nc12 [Compound 140, 5-[7-methoxy-2-(4-piperidyl)pyrazolo[4,3-b]pyridin-5-yl]-2-methyl-indazol-6-ol] | 1000 to 10000 nM | 1000 to 10000 nM | 100 to 1000 nM | 1000 to 10000 nM | – | – | – | –
4 | Cn1cc2cc(-c3cc(Cl)c4nn(C5CCNCC5)cc4n3)c(O)cc2n1 [Compound 141] | > 10000 nM | > 10000 nM | 1000 to 10000 nM | > 10000 nM | – | – | – | –
5 | COC1=C(C)C2N=C(C)OC2C=C1c1cc(F)c2nn(C3CCNCC3)cc2n1 (stereo not shown) [Compound 144] | > 10000 nM | > 10000 nM | 1000 to 10000 nM | > 10000 nM | – | – | – | –
6 | Cn1cc2cc(-c3cc(F)c4nn(C5CCNCC5)cc4c3)ccc2n1 [Compound 145, 7-fluoro-5-(2-methylindazol-5-yl)-2-(4-piperidyl)indazole] | 1000 to 10000 nM | 1000 to 10000 nM | < 100 nM | 100 to 1000 nM | – | – | – | –
7 | Cn1cc2cc(-c3ccc4cn(C5CCNCC5)nc4c3)cc(F)c2n1 [Compound 148, 7-fluoro-2-methyl-5-[2-(4-piperidyl)indazol-6-yl]indazole] | > 10000 nM | > 10000 nM | 1000 to 10000 nM | > 10000 nM | – | – | – | –
8 | Cc1cn2nc(-c3cc(F)c4nn(C5CCN(C)CC5)cc4c3)cc(C)c2n1 [Compound 150, 6-[7-fluoro-2-(1-methyl-4-piperidyl)indazol-5-yl]-2,8-dimethyl-imidazo[1,2-b]pyridazine] | 100 to 1000 nM | 100 to 1000 nM | < 100 nM | 100 to 1000 nM | – | – | – | –
9 | Cc1cn2nc(-c3cc(F)c4nn(C5CCN(C6CCC6)CC5)cc4c3)cc(C)c2n1 [Compound 151, 6-[2-(1-cyclobutyl-4-piperidyl)-7-fluoro-indazol-5-yl]-2,8-dimethyl-imidazo [1,2-b] pyridazine] | – | – | – | – | 100 to 1000 nM | < 100 nM | < 100 nM | < 100 nM
10 | Cc1cn2nc(-c3cc(F)c4nn(C5CCN(CCF)CC5)cc4c3)cc(C)c2n1 [Compound 152] | 100 to 1000 nM | 100 to 1000 nM | < 100 nM | 100 to 1000 nM | – | – | – | –
11 | Cc1cn2nc(-c3cc4cn(C5CCNCC5)nc4c(OCc4ccccc4)n3)cc(C)c2n1 [Compound 153, 6-[7-benzyloxy-2-(4-piperidyl)pyrazolo [3,4-c]pyridin-5-yl]-2,8-dimethyl-imidazo[1,2-b]pyridazine] | 1000 to 10000 nM | 1000 to 10000 nM | > 10000 nM | > 10000 nM | – | – | – | –
12 | Cc1cn2nc(-c3cc4cn(C5CCNCC5)nc4cc3O)cc(C)c2n1 [Compound 154, 5-(2,8-dimethylimidazo[1,2-b]pyridazin-6-yl)-2-(piperidin-4-yl)-2H-indazol-6-ol] | 100 to 1000 nM | 100 to 1000 nM | < 100 nM | 100 to 1000 nM | – | – | – | –
13 | COc1cc(-c2cc(C)c3nc(C)cn3n2)cc2cn(C3CCNCC3)nc12 [Compound 155, 6-(7-methoxy-2-(piperidin-4-yl)-2H-indazol-5-yl)-2,8-dimethylimidazo [1,2-b]pyridazine] | 100 to 1000 nM | 100 to 1000 nM | < 100 nM | 100 to 1000 nM | – | – | – | –
14 | Cc1cn2nc(-c3cc(O)c4nn(C5CCNCC5)cc4c3)cc(C)c2n1 [Compound 156, 5-(2,8-dimethylimidazo[1,2-b]pyridazin-6-yl)-2-(piperidin-4-yl)-2H-indazol-7-ol] | 1000 to 10000 nM | 1000 to 10000 nM | 100 to 1000 nM | 1000 to 10000 nM | – | – | – | –
15 | Cc1ccc2nc(-c3cc(F)c4nn(C5CCNCC5)cc4c3)ccc2n1 [Compound 157, 2-[7-fluoro-2-(4-piperidyl)indazol-5-yl]-6-methyl-1,5-naphthyridine] | 1000 to 10000 nM | 1000 to 10000 nM | 1000 to 10000 nM | > 10000 nM | – | – | – | –
16 | Fc1cc(-c2ccc3ccncc3c2)cc2cn(C3CCNCC3)nc12 [Compound 158, 7-[7-fluoro-2-(4-piperidyl)indazol-5-yl]isoquinoline] | > 10000 nM | > 10000 nM | 1000 to 10000 nM | > 10000 nM | – | – | – | –
17 | COc1cc2nn(C3CCNCC3)cc2cc1-c1cc(C)c2nc(C)cn2n1 [Compound 159, 6-(6-methoxy-2-(piperidin-4-yl)-2H-indazol-5-yl)-2,8-dimethylimidazo[1,2-b]pyridazine] | > 10000 nM | > 10000 nM | > 10000 nM | > 10000 nM | – | – | – | –
18 | Cc1cn2nc(-c3cc(F)c4nn(C5CCN(CCO)CC5)cc4c3)cc(C)c2n1 [Compound 160, 2-[4-[5-(2,8-dimethylimidazo[1,2-b]pyridazin-6-yl)-7-fluoro-indazol-2-yl]-1-piperidyl]ethanol] | – | – | – | – | 100 to 1000 nM | 100 to 1000 nM | 100 to 1000 nM | < 100 nM
19 | Fc1cc(-c2ccc3cnccc3c2)cc2cn(C3CCNCC3)nc12 [Compound 161, 6-[7-fluoro-2-(4-piperidyl)indazol-5-yl]isoquinoline] | 1000 to 10000 nM | 1000 to 10000 nM | 100 to 1000 nM | 1000 to 10000 nM | – | – | – | –
20 | Fc1cc(-c2ccc3ncccc3c2)cc2cn(C3CCNCC3)nc12 [Compound 162, 6-[7-fluoro-2-(4-piperidyl)indazol-5-yl]quinoline] | > 10000 nM | > 10000 nM | 1000 to 10000 nM | > 10000 nM | – | – | – | –
21 | Cc1ccc2cc(-c3cc(F)c4nn(C5CCNCC5)cc4c3)ccc2n1 [Compound 163, 6-[7-fluoro-2-(4-piperidyl)indazol-5-yl]-2-methyl-quinoline] | > 10000 nM | > 10000 nM | 1000 to 10000 nM | > 10000 nM | – | – | – | –

The next lines start with results.

Row | IC50 (MYB mRNA; [1]) | IC50 (MYB mRNA; [2]) | IC50 (SMN2 mRNA; [1]) | Compound | AC50 (MYB mRNA; [3]) | AC50 (MYB mRNA; 24 h) | IC50 (MYB mRNA; 24 h) | IC50 (MYB mRNA) | IC50 (SMN2 mRNA)
22 | 100 to 1000 nM | 100 to 1000 nM | < 100 nM | Cn1cc2cc(-c3cc(F)c4nn(C5CCNCC5)cc4c3)cc(C#N)c2n1 [Compound 130, 5-[7-fluoro-2-(4-piperidyl)indazol-5-yl]-2-methyl-indazole-7-carbonitrile] | 100 to 1000 nM | – | – | – | –
23 | 100 to 1000 nM | 100 to 1000 nM | < 100 nM | Cc1cc(-c2cc(F)c3nn(C4CCNCC4)cc3c2)cc2cn(C)nc12 [Compound 133, 5-(2,7-dimethylindazol-5-yl)-7-fluoro-2-(4-piperidyl)indazole] | 100 to 1000 nM | – | – | – | –
24 | 100 to 1000 nM | 100 to 1000 nM | < 100 nM | Cc1nc2ccc(-c3cc(F)c4nn(C5CCNCC5)cc4c3)cc2o1 [Compound 135, 6-[7-fluoro-2-(4-piperidyl)indazol-5-yl]-2-methyl-1,3-benzoxazole] | 100 to 1000 nM | – | – | – | –
25 | 100 to 1000 nM | 100 to 1000 nM | < 100 nM | Cc1nc2c(F)cc(-c3cc(F)c4nn(C5CCNCC5)cc4c3)cc2o1 [Compound 136, 4-fluoro-6-[7-fluoro-2-(4-piperidyl)indazol-5-yl]-2-methyl-1,3-benzoxazole] | 100 to 1000 nM | – | – | – | –
26 | 100 to 1000 nM | 100 to 1000 nM | < 100 nM | Cc1nc2c(C)cc(-c3cc(F)c4nn(C5CCNCC5)cc4c3)cc2o1 [Compound 137, 6-[7-fluoro-2-(4-piperidyl)indazol-5-yl]-2,4-dimethyl-1,3-benzoxazole] | 100 to 1000 nM | – | – | – | –
27 | 100 to 1000 nM | 100 to 1000 nM | < 100 nM | Cc1cn2nc(-c3ccc4nn(C5CCNCC5)cc4n3)cc(C)c2n1 [Compound 138, 2,8-dimethyl-6-[2-(4-piperidyl)pyrazolo[4,3-b]pyridin-5-yl]imidazo[1,2-b]pyridazine] | 1000 to 10000 nM | – | – | – | –
28 | 100 to 1000 nM | 100 to 1000 nM | < 100 nM | Cc1cn2nc(-c3cc4cn(C5CCNCC5)nc4c(O)n3)cc(C)c2n1 [Compound 139, 5-(2,8-dimethylimidazo[1,2-b]pyridazin-6-yl)-2-(4-piperidyl)-6H-pyrazolo[3,4-c]pyridin-7-one] | 100 to 1000 nM | – | – | – | –
29 | 100 to 1000 nM | 100 to 1000 nM | < 100 nM | CCN1CCC(n2cc3cc(-c4cc(C)c5nc(C)cn5n4)cc(F)c3n2)CC1 [Compound 146, 6-[2-(1-ethyl-4-piperidyl)-7-fluoro-indazol-5-yl]-2,8-dimethyl-imidazo[1,2-b]pyridazine] | 100 to 1000 nM | – | – | – | –
30 | 100 to 1000 nM | 100 to 1000 nM | 100 to 1000 nM | Cc1cn2nc(-c3cc4cn(C5CCNCC5)nc4cn3)cc(C)c2n1 [Compound 147, 2,8-dimethyl-6-[2-(4-piperidyl)pyrazolo[3,4-c]pyridin-5-yl]imidazo[1,2-b]pyridazine] | 100 to 1000 nM | – | – | – | –
31 | 100 to 1000 nM | 100 to 1000 nM | < 100 nM | Cc1cn2nc(-c3cc(F)c4nn(C5CCN(CC6CC6)CC5)cc4c3)cc(C)c2n1 [Compound 149, 6-[2-[1-(cyclopropylmethyl)-4-piperidyl]-7-fluoro-indazol-5-yl]-2,8-dimethyl-imidazo[1,2-b]pyridazine] | 100 to 1000 nM | – | – | – | –
